Results: EP4523686A1, “A SIGMA-1 RECEPTOR POSITIVE MODULATOR FOR ITS USE IN THE PREVENTION AND THE TREATMENT OF A PATHOLOGY” (priority 2023, dated 2025)

Columns and labels:
[1] = test system: Dizocilpine-induced learning impairments in mice; experiment: Spontaneous alternation in the Y-maze, Dizocilpine-induced learning impairments; type: in vivo; settings: at the highest dose tested (range 0.1-3 mg/kg IP)
Experimental: The Y-maze is made of grey polyvinylchloride. Each arm is 40 cm long, 13 cm high, 3 cm wide at the bottom, 10 cm wide at the top, and converging at an equal angle. Each mouse was placed at the end of one arm and allowed to move freely through the maze during an 8 min session. The series of arm entries, including possible returns into the same arm, were checked visually. An alternation is defined as entries into all three arms on consecutive occasions. The number of maximum alternations is therefore the total number of arm entries minus two and the percentage of alternation was calculated as (actual alternations / maximum alternations) × 100 (Maurice et al., 1996; Meunier et al., 2006, 2013). Exclusion criteria are locomotion < 10 or percentage of alternation < 25% or > 90%. Animals showing these readouts are excluded from the calculations. Attrition is routinely < 5% in this test.
Due to the chaperone nature of SIG-1R, a SIG-1R positive modulator behaves as an agonist in vivo, particularly on learning and memory abilities in mice (Maurice et al., 2019; Vavers et al., 2019). Convolamine was tested on Dizocilpine-induced learning impairments, a well-characterized SIG-1R-mediated response in mice (Maurice et al., 1994, 2001). The NMDA receptor noncompetitive antagonist Dizocilpine (0.15 mg/kg IP) prevented spontaneous alternation behavior (Fig. 4A) and increased mobility (Fig. 4B) in the Y-maze. […] Co-treatment with the SIG-1R antagonist NE-100 at 1 mg/kg IP, blocked the attenuating effect of Convolamine (Fig. 4C), thus confirming the SIG-1R-mediated effect.

[2] = test system: wfs1ab^KO zebrafish larvae; experiment: Visual motor response in zebrafish larvae (hyperlocomotor response); type: in vivo; settings: at 3 µM in fish water
Experimental: The visual motor response assay quantifies the locomotor activity of the zebrafish larvae to light intensity changes. The protocol was previously described (Crouzier et al., 2021a, 2021b, 2022). In brief, 5 dpf larvae were transfered in a 96-well plate (#7701-1651, Whatman) with 300 µl of fish water and placed in a Zebrabox® (ViewPoint, Lissieu, France). The locomotor behavior was monitored using an automated videotracking device equipped with an infra-red (IR) camera under IR light illumination (Zebralab®, Viewpoint). The light protocol was as follow: 30 min of acclimatization in the dark (0% light intensity), then 2 cycles of 10-min duration light ON and 10-min duration light OFF periods. The brightness changes were immediate (<< 1 s). The activity was measured in mm/s. For each larva, the mobility were calculated as mean (OFF-ON) values to account for inter- and intra-group variability in locomotor response.
A phenotypic test described by Crouzier et al. (2022) was performed. […] Compounds were added in the fish water of larvae at 4 dpf for 24 h, and screening parameters included: (1) the lack of toxicity (including grossly observable morphological alterations) after 24 h exposure; (2) the locomotor increase in wfs1ab^KO larvae, expressed as % of V-treated wfs1ab^KO response; (3) the eventual alteration of locomotion in wfs1ab^WT larvae, expressed as % of V-treated wfs1ab^WT response; and (4) the Protection index (PI) calculated as detailed in the Methods section.

[3] = test system: Dizocilpine-induced learning impairments in mice; experiment: Step-through passive avoidance, Dizocilpine-induced learning impairments; type: in vivo
Text: The apparatus is a two-compartments (15 × 20 × 15 cm high) box with one illuminated with white polyvinylchloride walls and the other darkened with black polyvinylchloride walls and a grid floor. A guillotine door separates each compartment. A 60 W lamp positioned 40 cm above the apparatus lights up the white compartment during the experiment. Scrambled foot shocks (0.3 mA for 3 s) could be delivered to the grid floor using a shock generator scrambler (Lafayette Instruments, Lafayette, USA). The guillotine door was initially closed during the training session. Each mouse was placed into the white compartment. After 5 s, the door was raised. When the mouse entered the darkened compartment and placed all its paws on the grid floor, the door is closed and the foot shocks delivered for 3 s. The step-through latency (STL-Tg), that is, the latency spent to enter the darkened compartment, and the number of vocalizations were recorded. The retention test was carried out 24 h after training. Each mouse was placed again into the white compartment. After 5 s, the door was raised. The step-through latency (STL-R) was recorded up to 300 s (Meunier et al., 2006, 2013; Villard et al., 2009, 2011). An exclusion criteria was STL-Tg and STL-R < 10 s. Animals showing these readouts are excluded from the calculations. Attrition is routinely < 5% in this test.

SIG-1R/BiP = biological target: T1, SIG-1R/BiP (Homo sapiens, UniProt Q99720); experiment: SIG-1R/BiP dissociation assay in GFP-SIG-1R-overexpressing CHO cells; type: cell-based; settings: compound alone, at concentrations up to 30 µM
T1 construct: host or cells: CHO cells overexpressing GFP-SIG-1R
T1 sequence (Q99720 whole entry): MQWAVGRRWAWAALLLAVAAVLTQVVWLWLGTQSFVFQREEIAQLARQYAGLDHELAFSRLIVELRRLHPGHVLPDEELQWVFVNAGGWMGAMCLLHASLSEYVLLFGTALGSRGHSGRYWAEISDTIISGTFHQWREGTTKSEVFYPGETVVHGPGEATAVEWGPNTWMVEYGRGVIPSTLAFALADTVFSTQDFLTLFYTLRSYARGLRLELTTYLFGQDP
Experimental: CHO cells which overexpress GFP tagged-SIG-1R (gift from Tsung-Ping Su, NIDA/NIH, Baltimore, MD, USA) were maintained in DMEM/Glutamax culture medium supplemented with 10% heat inactivated FBS. GFP-SIG-1Roe CHO cells were plated in 6-well plates and treated with test compounds dissolved in culture medium for 30 min at 37°C. The reaction was terminated by removing the culture medium containing the test drug and replacing it with 1 ml of PBS. GFP-SIG-1R-oe CHO cells were harvested and suspended in PBS (pH 7.4) followed by cross-linking with 50 µg/ml of dithiobis succinimidyl propionate (ThermoFisher, France). The reaction was stopped by adding Tris/HCl 50 mM (pH 8.8). After a 15 min incubation on ice, cells were lysed with 50 mM Tris (pH 7.4), 150 mM NaCl, 1% Triton X/100, 0.3% sodium deoxycholate, 0.1% SDS buffer containing a protease inhibitor cocktail (Sigma-Aldrich, France). After centrifugation at 16,000 g for 1 min, the supernatant was incubated with Chromotek GFP-trap agarose (Proteintech, United Kingdom) overnight at 4°C.

SMILES | Dizocilpine-induced alternation deficit (in words) [1] | hyperlocomotor response of wfs1ab^KO zebrafish (in words) [2] | Dizocilpine-induced decrease in step-through latency (in words) ([3]; at 0.3 mg/kg IP) | Dizocilpine-induced increase in escape latency (in words) ([3]; at the highest doses tested (range 0.1-3 mg/kg IP)) | dissociation of SIG-1R from BiP (in words) (SIG-1R/BiP)
COc1ccc(C(=O)OC2CC3CCC(C2)N3)cc1OC (stereo not drawn) [Convolvine, reference compound] | significantly attenuated | failed to attenuate | attenuated, but in a non-significant manner | attenuated, but in a non-significant manner | 
CCCN(CCC)CCc1ccc(OC)c(OCCc2ccccc2)c1 [NE-100, reference compound] |  | failed to affect |  |  | ineffective
